Reference: PMC9841532, “Exploring the Effect of Halogenation in a Series of Potent and Selective A2B Adenosine Receptor Antagonists” (Journal of Medicinal Chemistry, 2022)
In brackets after ≈: the same amount, converted by molar mass. Like-named read-outs stand apart in the source and are kept apart here.

How the values were obtained:
[1] = Solubility determination (nephelometry); format: physicochemical; conditions: 1:99 DMSO/PSB buffer, PBS pH 7, 37 °C
Method: The solubility of selected compounds was evaluated by following a previously described method.[31] A 10 mM stock solution of the compound was serially diluted in 100% DMSO, and 2.5 μL of this solution was added to a 384-well UV-transparent plate (Greiner) containing 47.5 μL of PBS (pH = 7). The plate was incubated at 37 °C for 4 h, and the light scattering was measured in a NEPHELOstar Plus reader (BMG LABTECH). The data was fitted to a segmented linear regression for measuring the compound solubility.

hA2BAR = molecular target: T1, hA2BAR (Homo sapiens, UniProt P29275); experiment: Radioligand binding competition, [3H]DPCPX, membranes from HEK-293-A2B cells; set-up: Exp. dG: unit not given here; conditions: for Ki: read-out: Ki hA2B; for Exp. dG: experimental binding free energy, Supplementary Table S3, unit not given (errors in kcal/mol)
T1 construct: host or cells: HEK-293 (HEK-293-A2B) cell membranes
T1 sequence (P29275 1-332): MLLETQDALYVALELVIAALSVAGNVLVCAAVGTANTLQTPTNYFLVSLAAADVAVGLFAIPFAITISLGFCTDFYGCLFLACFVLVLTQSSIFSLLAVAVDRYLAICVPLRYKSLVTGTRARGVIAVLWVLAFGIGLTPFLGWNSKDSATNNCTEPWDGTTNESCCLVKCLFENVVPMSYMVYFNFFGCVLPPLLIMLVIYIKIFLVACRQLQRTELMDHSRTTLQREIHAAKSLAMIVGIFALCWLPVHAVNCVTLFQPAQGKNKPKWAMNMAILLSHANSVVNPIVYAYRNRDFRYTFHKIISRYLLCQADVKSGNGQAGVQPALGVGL
Procedure, shortened: (§1)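 Racemates, plus selected enantiomers after chiral resolution, were tested at 25 °C, with a 60 min incubation for one subtype and 30 min for others. Non-specific binding was defined with 10 μM or 100 μM R-PIA. Bound radioactivity was counted after washing and filtration.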

CYP3A4 = molecular target: T2, CYP3A4 (Homo sapiens, UniProt P08684); experiment: CYP3A4 inhibition (fluorescence, substrates DBF or 7-BFC); format: biochemical; conditions: for IC50: IC50 obtained by extrapolation with analysis software
T2 construct: host or cells: insect cell microsomes
T2 sequence (P08684 whole entry): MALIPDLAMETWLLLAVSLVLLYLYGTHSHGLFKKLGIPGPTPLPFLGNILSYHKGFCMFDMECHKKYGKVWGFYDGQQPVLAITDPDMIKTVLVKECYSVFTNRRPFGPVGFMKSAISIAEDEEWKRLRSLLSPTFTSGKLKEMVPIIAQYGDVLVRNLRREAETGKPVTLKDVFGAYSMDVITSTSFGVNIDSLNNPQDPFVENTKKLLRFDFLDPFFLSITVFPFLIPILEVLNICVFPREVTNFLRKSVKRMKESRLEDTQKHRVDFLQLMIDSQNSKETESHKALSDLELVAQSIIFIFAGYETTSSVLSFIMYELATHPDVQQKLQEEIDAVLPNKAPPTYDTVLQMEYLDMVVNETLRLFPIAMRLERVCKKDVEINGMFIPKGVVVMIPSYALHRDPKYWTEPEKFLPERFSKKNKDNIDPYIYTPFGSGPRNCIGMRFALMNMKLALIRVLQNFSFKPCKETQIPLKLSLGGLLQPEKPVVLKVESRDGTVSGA
Method: To identify potential metabolic liabilities within the series here documented, the selected A2BAR antagonists were tested in vitro for CYP3A4 inhibitory activity.
The inhibitory activity of selected compounds was evaluated by following a previously described method.[31] […] The plate was then pre-incubated at 37 °C for 5 min and the reaction initiated by the addition of a pre-warmed enzyme/substrate (E/S) mix. The E/S mix contained buffer (KH2PO4), c-DNA-expressed P450 in insect cell microsomes, substrate (DBF: dibenzylfluorescein or 7-BFC: 7-benzyloxy-4-trifluoromethyl-coumarin) and other components to give the final assay concentrations in a reaction volume of 200 μL. Reactions were terminated after various times (a specific time for each cytochrome) by addition of STOP solution (ACN/Tris–HCl 0.5 M 80:20, and NaOH 2 N for CYP3A4). Fluorescence per well was measured using a fluorescence plate reader (Tecan Infinite M1000 PRO), and percentage of inhibition was calculated. In silico predictions were performed using free web-based models (FAME 3, SmartCYP, and Xenosite).[62]−[64]

[2] = Human microsomal stability; format: in vitro ADME; conditions: human microsomes; for microsomal stability percent (percentage remanent): sampling time 60 min; for microsomal CLint at 1 h / half-life at 1 h: human, pH 7.4; for microsomal CLint at 1 h: read-out: microsomal stability Clint (intrinsic clearance); for half-life at 1 h: read-out: microsomal stability t1/2
Method: The human microsomal stability of selected compounds was evaluated by following a previously described method.[31] The human microsomes employed were purchased from Tebu-Xenotech. The compound was incubated with the microsomes at 37 °C in a 50 mM phosphate buffer (pH = 7.4) containing 3 mM MgCl2, 1 mM NADP, 10 mM glucose-6-phosphate, and 1 U/mL glucose-6-phosphate-dehydrogenase. Samples (75 μL) were taken from each well at 0, 10, 20, 40, and 60 min and transferred to a plate containing 4 °C 75 μL acetonitrile and 30 μL of 0.5% formic acid in water was added for improving the chromatographic conditions. The plate was centrifuged (46,000 g, 30 min), and supernatants were taken and analyzed in a UPLC-MS/MS (Xevo TQD, Waters) by employing a BEH C18 column and an isocratic gradient of 0.1% formic acid in water:0.1% formic acid acetonitrile (60:40). The metabolic stability of the compounds was calculated from the logarithm of the remaining compounds at each of the time point studied.

hA2AAR [3] = molecular target: T3, hA2AAR (Homo sapiens, UniProt P29274); experiment: Radioligand binding competition, [3H]ZM241385, membranes from HeLa-A2A cells; conditions: for % at 1 μM hA2A (percentage displacement of specific binding): [3H]ZM241385, human HeLa cells, n = 2
T3 construct: expressed in transfected cells; host or cells: HeLa (HeLa-A2A) cell membranes
T3 sequence (P29274 whole entry): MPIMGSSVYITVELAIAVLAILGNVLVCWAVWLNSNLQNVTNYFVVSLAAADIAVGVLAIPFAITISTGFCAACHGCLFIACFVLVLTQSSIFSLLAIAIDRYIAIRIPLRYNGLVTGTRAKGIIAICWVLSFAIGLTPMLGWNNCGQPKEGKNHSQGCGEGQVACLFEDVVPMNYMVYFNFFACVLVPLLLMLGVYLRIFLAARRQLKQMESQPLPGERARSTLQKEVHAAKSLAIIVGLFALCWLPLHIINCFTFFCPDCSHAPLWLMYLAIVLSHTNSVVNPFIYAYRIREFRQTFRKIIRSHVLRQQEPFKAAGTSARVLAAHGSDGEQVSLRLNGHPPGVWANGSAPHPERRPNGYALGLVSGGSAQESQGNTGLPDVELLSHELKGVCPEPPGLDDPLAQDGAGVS
Procedure, shortened: as §1

hA1AR [4] = molecular target: T4, hA1AR (Homo sapiens, UniProt P30542); experiment: Radioligand binding competition, [3H]DPCPX, membranes from CHO-A1 cells; conditions: 1 μM, [3H]DPCPX, human CHO cells, n = 2
T4 sequence (P30542 1-326): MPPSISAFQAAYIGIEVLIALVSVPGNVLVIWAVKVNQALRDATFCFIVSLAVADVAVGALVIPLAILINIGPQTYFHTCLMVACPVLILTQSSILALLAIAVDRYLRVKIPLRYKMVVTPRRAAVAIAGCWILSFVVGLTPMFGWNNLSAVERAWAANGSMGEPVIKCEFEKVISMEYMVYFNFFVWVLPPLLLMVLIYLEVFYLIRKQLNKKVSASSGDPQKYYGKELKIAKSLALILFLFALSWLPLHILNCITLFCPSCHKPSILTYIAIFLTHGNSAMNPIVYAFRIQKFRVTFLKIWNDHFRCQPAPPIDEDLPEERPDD
Procedure, shortened: as §1

hA3AR [5] = molecular target: T5, hA3AR (Homo sapiens, UniProt P0DMS8); experiment: Radioligand binding competition, [3H]NECA, membranes from HeLa-A3 cells; conditions: 1 μM, [3H]NECA, human HeLa cells, n = 2
T5 construct: expressed in transfected cells; host or cells: HeLa (HeLa-A3) cell membranes
T5 sequence (P0DMS8 1-318): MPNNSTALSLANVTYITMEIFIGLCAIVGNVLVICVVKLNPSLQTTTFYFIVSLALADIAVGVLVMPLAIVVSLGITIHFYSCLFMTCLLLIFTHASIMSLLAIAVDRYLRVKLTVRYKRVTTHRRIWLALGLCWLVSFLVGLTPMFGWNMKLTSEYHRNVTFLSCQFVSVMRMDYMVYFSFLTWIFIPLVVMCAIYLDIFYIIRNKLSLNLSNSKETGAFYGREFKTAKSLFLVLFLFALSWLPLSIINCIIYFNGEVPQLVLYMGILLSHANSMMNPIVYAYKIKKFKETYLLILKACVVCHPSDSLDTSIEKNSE
Procedure, shortened: as §1

A2B = conditions: Figure 1, representative A2B antagonists ref 28-32; read-out: Ki; cited from earlier work
hA2AAR [6] = molecular target: T3, hA2AAR; conditions: prototype series, human HeLa cells ref 30, 31; cited from earlier work
hA3AR [7] = molecular target: T5, hA3AR; conditions: prototype series, [3H]NECA, human HeLa cells ref 30, 31; cited from earlier work
hA1AR [8] = molecular target: T4, hA1AR; conditions: prototype series, [3H]DPCPX, human CHO cells ref 30, 31; cited from earlier work
[9] = displacement of specific [3H]DPCPX binding in human HEK-293 cells, n = 3
[10] = 10 μM, substrate 7-benzyloxy-4-trifluoromethyl-coumarin
[11] = substrate dibenzylfluorescein, read-out: CYP3A4 IC50, DBF

Ki (hA2BAR; [9]) [µM] | Exp. dG (hA2BAR) | Compound | % at 1 μM hA2A (percentage displacement of specific binding) (hA2AAR [6]) [%] | % at 1 μM hA3 (percentage displacement of specific binding) (hA3AR [7]) [%] | % at 1 μM hA1 (percentage displacement of specific binding) (hA1AR [8]) [%] | also measured
0.0061 ± 0.0007 | -11.2 | CC1=C(C(=O)OC(C)C)C(c2ccoc2)n2c(nc3cc(Cl)ccc32)N1 (stereo not drawn) [16l] |  |  |  | solubility at 4 h [1]: 21.9 µM (≈ 8.14 µg/mL); Ki (hA2BAR): < 0.01 µM; CYP3A4 % inh. at 10 μM, 7-BFC (CYP3A4; [10]): 44%; IC50 (CYP3A4; substrate 7-benzyloxy-4-trifluoromethyl-coumarin, read-out: CYP3A4 IC50, 7-BFC): > 10 µM; IC50 (CYP3A4; [11]): 6.36 ± 1.02 µM; microsomal stability percent (percentage remanent) [2]: 41.02%; microsomal CLint at 1 h [2]: 11.7 µL/min/mg; half-life at 1 h [2]: 44.8 min; Ki (hA2AAR [3]; displacement of specific [3H]ZM241385 binding in human HeLa cells, n = 3, read-out: Ki hA2A): 0.176 ± 0.004 µM; % at 1 μM hA1 (percentage displacement of specific binding) (hA1AR [4]): 27%; % at 1 μM hA3 (percentage displacement of specific binding) (hA3AR [5]): 1%
0.0061 ± 0.0003 | -11.2 | CC1=C(C(=O)OC(C)C)C(c2cocn2)n2c(nc3cc(F)ccc32)N1 (stereo not drawn) [18b] |  |  |  | solubility at 4 h [1]: 64.6 µM (≈ 23 µg/mL); Ki (hA2BAR): < 0.01 µM; CYP3A4 % inh. at 10 μM, 7-BFC (CYP3A4; [10]): 52%; CYP3A4 % inh. at 10 μM, DBF (CYP3A4; 10 μM, substrate dibenzylfluorescein): 31%; IC50 (CYP3A4; [11]): > 10 µM; microsomal stability percent (percentage remanent) [2]: 35.15%; microsomal CLint at 1 h [2]: 12.8 µL/min/mg; half-life at 1 h [2]: 40.8 min; % at 1 μM hA2A (percentage displacement of specific binding) (hA2AAR [3]): 20%; % at 1 μM hA1 (percentage displacement of specific binding) (hA1AR [4]): 29%; % at 1 μM hA3 (percentage displacement of specific binding) (hA3AR [5]): 20%
0.00349 ± 0.0002 | -11.53 | CC1=C(C(=O)OC(C)C)C(c2ccco2)n2c(nc3ccccc32)N1 (stereo not drawn) [II, reference compound] | 28 | 2 | 20 | % at 1 μM hA2B (percentage displacement of specific binding) (hA2BAR; 1 μM, [3H]DPCPX, human HEK-293 cells, n = 2): 17%; Ki (A2B): 0.00349 µM; % at 1 μM hA2A (percentage displacement of specific binding) (hA2AAR [3]; listed as (±)-ISAM-140): 28%; % at 1 μM hA2A (percentage displacement of specific binding) (hA2AAR [3]; listed as ISAM-140): 7%; % at 1 μM hA1 (percentage displacement of specific binding) (hA1AR [4]; listed as (±)-ISAM-140): 20%; % at 1 μM hA1 (percentage displacement of specific binding) (hA1AR [4]; listed as ISAM-140): 14%; % at 1 μM hA3 (percentage displacement of specific binding) (hA3AR [5]; listed as (±)-ISAM-140): 2%; % at 1 μM hA3 (percentage displacement of specific binding) (hA3AR [5]; listed as ISAM-140): 3%
 | -10.48 | CCOC(=O)C1=C(C)Nc2nc3ccccc3n2C1c1ccoc1 (stereo not drawn) [III] | 11 | 1 | 7 | 
 | -10.8 | CCOC(=O)C1=C(C)Nc2nc3ccccc3n2C1c1ccco1 (stereo not drawn) [I] | 14 | 1 | 5 | Ki (A2B): 0.012 µM
 | -10.27 | CC1=C(C(=O)OC(C)C)C(c2ccsc2)n2c(nc3ccccc32)N1 (stereo not drawn) [VIII] | 3 | 21 | 11 | 
 | -10.26 | CCOC(=O)C1=C(C)Nc2nc3ccccc3n2C1c1ccsc1 (stereo not drawn) [VII] | 10 | 2 | 3 | 
 | -8.767 | CC1=C(C(=O)OC(C)C)C(c2cccs2)n2c(nc3ccccc32)N1 (stereo not drawn) [VI] | 17 | 3 | 1 | 
 |  | CCOC(=O)C1=C(C)Nc2nc3ccccc3n2C1c1cccs1 (stereo not drawn) [V] | 16 | 1 | 8 | 
